Reference: patent publication US20190183124A1, “METHOD FOR CONTROLLING PESTS IN MODIFIED PLANTS” (BASF SE, priority 2016, published 2019)

Test system: Sweetpotato whitefly (Bemisia tabaci)
Experiment: Action on Sweetpotato whitefly (Bemisia tabaci) on soybean plants, greenhouse foliar spray
Type: in vivo
Details: for Mean whitefly nymph response (Whitefly Nymphs D.A.A.-2): dose 60 ppm a.i. (text: 60 g a.i./ha, 200 L/ha), two applications 7 days apart, whole plant counts 3 days after 2nd application, greenhouse
Protocol: The active compound tested was formulated as a SL-type formulation.
Action on Sweetpotato whitefly (Bemisia tabaci)
A randomized block, 2 by 3 factorial experimental design was utilized to determine the interaction effects and main effects of two explanatory variables: product rate and soybean variety on the response variable, whitefly mortality. The study was conducted under greenhouse conditions and utilized lntacta™ (Bt-traited) and ‘BMX Potencia’ (non-traited) varieties at growth stage 11, respectively. All study plants were infested with Bemisia tabaciadults prior to application.
Formulated material of compound I-1 was combined with water and applied at concentration of 60 gai/ha with a CO2 pressurized spray boom at 200 L/ha water volume. The first application was timed to a threshold whitefly infestation, and was followed by a second application 7 days later.
Assessments were conducted by taking whole plant counts of adult and immature whiteflies at 3 days after the second application.

## CCN(C(=O)c1cnn(C(C)C(C)C)c1C)c1ccnnc1 (stereo not drawn) [I-1, 1-(1,2-dimethylpropyl)-N-ethyl-5-methyl-N-pyridazin-4-yl-pyrazole-4-carboxamide]
60 g a.i./ha, 3 days after second application, Intacta vs BMX Potencia soybean
  Effect against whiteflies in Intacta soybean relative to BMX Potencia: synergistic effect
BMX Potencia (non-traited) soybean
  Mean whitefly nymph response (Whitefly Nymphs D.A.A.-2): 4.91
Intacta (Bt-traited) soybean
  Mean whitefly nymph response (Whitefly Nymphs D.A.A.-2): 0.57
